Residues, ends and D or L forms follow the SMILES beside them. *: point of attachment. Hydrocinnamoyl = O=C(CCc1ccccc1)*; Cbz = O=C(OCc1ccccc1)*
Target: T1, Caspase-1 (Homo sapiens, UniProt P29466)
T1 sequence (P29466 whole entry): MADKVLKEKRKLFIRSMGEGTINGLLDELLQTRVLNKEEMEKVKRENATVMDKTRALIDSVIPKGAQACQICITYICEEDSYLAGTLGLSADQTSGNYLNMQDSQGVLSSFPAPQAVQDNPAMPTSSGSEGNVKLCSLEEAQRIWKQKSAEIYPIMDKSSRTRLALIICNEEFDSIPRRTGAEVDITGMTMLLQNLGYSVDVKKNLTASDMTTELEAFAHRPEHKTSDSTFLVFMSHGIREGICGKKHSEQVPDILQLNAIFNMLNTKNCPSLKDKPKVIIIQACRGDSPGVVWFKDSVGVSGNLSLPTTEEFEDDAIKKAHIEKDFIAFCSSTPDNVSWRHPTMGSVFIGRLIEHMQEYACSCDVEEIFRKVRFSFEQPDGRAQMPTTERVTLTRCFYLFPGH
Assay: Inhibition of IL-1 beta converting enzyme

Ki	SMILES
54 nM	CC(=O)NC(C(=O)Nc1ccc(Cc2ccccc2)n(CC(=O)N[C@H](C=O)CC(=O)O)c1=O)c1ccc(O)cc1 (stereo partly specified)
9 nM	CC(=O)N[C@@H](Cc1ccc(O)cc1)C(=O)N[C@H](C(=O)N[C@@H](C)C(=O)N[C@@H](CC(=O)O)C(=O)O)C(C)C
900 nM	O=C[C@H](CC(=O)O)NC(=O)Cn1c(-c2ccccc2)ccc(NC(=O)CCc2ccccc2)c1=O
55 nM	CC(C)[C@H](NC(=O)OCc1ccccc1)C(=O)N[C@@H](C)C(=O)N[C@@H](CC(=O)O)C(=O)O (Cbz-Val-Ala-Asp-OH)
1300 nM	CC(C)[C@H](NC(=O)OCc1ccccc1)C(=O)NCC(=O)N[C@@H](CC(=O)O)C(=O)O (Cbz-Val-Gly-Asp-OH)
54 nM	CC(C)[C@H](NC(=O)CCc1ccccc1)C(=O)N[C@@H](C)C(=O)N[C@@H](CC(=O)O)C(=O)O (Hydrocinnamoyl-Val-Ala-Asp-OH)
